Data set [1] concerns HSD1 enzyme that is expressed in rabbit placenta tissue. Kind of data set: Inhibition of E1 to E2 conversion in rabbit placenta tissue homogenate. The class given is biochemical. The note with it: compound 100 nM, 30 nM estrone, 1 mM β-NADPH, 30 min. Summed up:
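Rabbit placenta homogenate (20 mM KH2PO4, 1 mM EDTA, pH 7.4) incubated 30 min with 1 mM β-NADPH, 30 nM estrone plus 5 nM [3H]-estrone tracer, and inhibitor at 1 μM or 0.1 μM (1% DMSO). Stopped with TCA; estrone and estradiol resolved by HPLC with scintillation counting; % inhibition = 100 − % conversion relative to uninhibited control.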

Data set [2] is described as follows: Metabolic stability assay, human hepatocyte incubations. Type of data set: in vitro ADME. Conditions: compound 1 μM, human hepatocytes, 0-60 min at 37° C.; read-out: Human hepatocytes MetStab T½ min. As to the method:
Compound stock solutions of the invention were prepared in […]. Final concentration of DMSO was adjusted to 1% in all samples. The in vitro metabolic stability of the compounds of the invention was determined for exemplified compounds using human hepatocyte incubations; study compounds at concentration of 1 μM were incubated 0, 10, 20, 40 and 60 min at 37° C. Samples were collected at all time points and compounds were detected by LC-MS/MS analysis. The percent compound remaining is calculated by comparing the peak area of the parent compound at each time point to time zero. In vitro metabolic stability was determined as half life (T1/2), which was determined by regression analysis of the percent parent disappearance vs. time curve.

Turning to `C[C@]12CCC3c4ccc(Cl)cc4CCC3C1[C@H](CCC(=O)Nc1cc3c([nH]c1=O)CCCC3)c1c[nH]nc12` (stereo partly drawn) [Compound 123, 3-((8aS,12S)-4-chloro-8a-methyl-1,2,6b,7,8,8a,10,12,12a,12b-decahydronaphtho[2′,1′:4,5]indeno[1,2-c]pyrazol-12-yl)-N-(2-oxo-1,2,5,6,7,8-hexahydroquinolin-3-yl) propanamide], in data set [1], the “Rabbit placenta inhibition % @100 nM” value came out at 17%. Besides, the half-life at 1 μM in data set [2] came out at 155 min.

On to `CN(C)C(=O)c1ccc(NC(=O)CC[C@@H]2c3c[nH]nc3[C@@]3(C)CCC4c5ccc(Cl)cc5CCC4C23)nc1` (stereo partly drawn) [Compound 126, 6-(3-((8aS,12S)-4-chloro-8a-methyl-1,2,6b,7,8,8a,10,12,12a,12b-decahydronaphtho[2′,1′:4,5]indeno[1,2-c]pyrazol-12-yl)propanamido)-N,N-dimethylnicotinamide], for which, in data set [1], the “Rabbit placenta inhibition % @100 nM” value came to 37%. The half-life at 1 μM in data set [2] came to 147 min.

For `CC(C)c1ccc(NC(=O)CC[C@@H]2c3c[nH]nc3[C@@]3(C)CCC4c5ccccc5CCC4C23)nc1` (stereo partly drawn) [Compound 138, N-(5-isopropylpyridin-2-yl)-3-((8aS,12S)-8a-methyl-1,2,6b,7,8,8a,10,12,12a,12b-decahydronaphtho[2′,1′:4,5]indeno[1,2-c]pyrazol-12-yl)propanamide], the “Rabbit placenta inhibition % @100 nM” value in data set [1] is 18%. In addition, the half-life at 1 μM in data set [2] came out at 51 min.

Regarding `COc1ccc(NC(=O)CC[C@@H]2c3c[nH]nc3[C@@]3(C)CCC4c5ccccc5CCC4C23)nc1` (stereo partly drawn) [Compound 141, N-(5-methoxypyridin-2-yl)-3-((8aS,12S)-8a-methyl-1,2,6b,7,8,8a,10,12,12a,12b-decahydronaphtho[2′,1′:4,5]indeno[1,2-c]pyrazol-12-yl)propanamide], the “Rabbit placenta inhibition % @100 nM” value in data set [1] was 35%. The half-life at 1 μM in data set [2] is 45 min.

As for `COc1ccc(NC(=O)CC[C@@H]2c3c[nH]nc3[C@@]3(C)CCC4c5ccccc5CCC4C23)nn1` (stereo partly drawn) [Compound 156, N-(6-methoxypyridazin-3-yl)-3-((8aS,12S)-8a-methyl-1,2,6b,7,8,8a,10,12,12a,12b-decahydronaphtho[2′,1′:4,5]indeno[1,2-c]pyrazol-12-yl)propanamide], the “Rabbit placenta inhibition % @100 nM” value in data set [1] came out at 56%. For the same molecule, the half-life at 1 μM in data set [2] came to 93 min.

As for `C[C@]12CCC3c4ccccc4CCC3C1[C@H](CCC(=O)Nc1ccc(F)cn1)c1c[nH]nc12` (stereo partly drawn) [Compound 159, N-(5-fluoropyridin-2-yl)-3-((8aS,12S)-8a-methyl-1,2,6b,7,8,8a,10,12,12a,12b-decahydronaphtho[2′,1′:4,5]indeno[1,2-c]pyrazol-12-yl)propanamide], in data set [1], the “Rabbit placenta inhibition % @100 nM” value is on record as 23%. Besides, the half-life at 1 μM in data set [2] came out at 77 min.

Take `C[C@]12CCC3c4ccccc4CCC3C1[C@H](CCC(=O)Nc1cc(F)ccn1)c1c[nH]nc12` (stereo partly drawn) [Compound 162, N-(4-fluoropyridin-2-yl)-3-((8aS,12S)-8a-methyl-1,2,6b,7,8,8a,10,12,12a,12b-decahydronaphtho[2′,1′:4,5]indeno[1,2-c]pyrazol-12-yl)propanamide]: the “Rabbit placenta inhibition % @100 nM” value in data set [1] is 44%. Besides, the half-life at 1 μM in data set [2] worked out at 83 min.

On to `COc1ccnc(NC(=O)CC[C@@H]2c3c[nH]nc3[C@@]3(C)CCC4c5ccccc5CCC4C23)c1` (stereo partly drawn) [Compound 165, N-(4-methoxypyridin-2-yl)-3-((8aS,12S)-8a-methyl-1,2,6b,7,8,8a,10,12,12a,12b-decahydronaphtho[2′1′:4,5]indeno[1,2-c]pyrazol-12-yl)propanamide], for which the “Rabbit placenta inhibition % @100 nM” value in data set [1] amounted to 34%. Also, the half-life at 1 μM in data set [2] was 44 min.

Consider `Cc1ccnc(NC(=O)CC[C@@H]2c3c[nH]nc3[C@@]3(C)CCC4c5ccccc5CCC4C23)c1` (stereo partly drawn) [Compound 168, 3-((8aS,12S)-8a-methyl-1,2,6b,7,8,8a,10,12,12a,12b-decahydronaphtho[2′,1′:4,5]indeno[1,2-c]pyrazol-12-yl)-N-(4-methylpyridin-2-yl)propanamide], for which the “Rabbit placenta inhibition % @100 nM” value in data set [1] is listed as 58%. Also, in data set [2], the half-life at 1 μM stood at 68 min.

Regarding `C[C@]12CCC3c4ccccc4CCC3C1[C@H](CCC(=O)Nc1ccccn1)c1c[nH]nc12` (stereo partly drawn) [Compound 171, 3-((8aS,12S)-8a-methyl-1,2,6b,7,8,8a,10,12,12a,12b-decahydronaphtho[2′,1′:4,5]indeno[1,2-c]pyrazol-12-yl)-N-(pyridin-2-yl)propanamide], the “Rabbit placenta inhibition % @100 nM” value in data set [1] was 27%. The half-life at 1 μM in data set [2] worked out at 73 min.

Regarding `C[C@]12CCC3c4ccccc4CCC3C1[C@H](CCC(=O)Nc1cnccn1)c1c[nH]nc12` (stereo partly drawn) [Compound 189, 3-((8aS,12S)-8a-methyl-1,2,6b,7,8,8a,10,12,12a,12b-decahydronaphtho[2′,1′:4,5]indeno[1,2-c]pyrazol-12-yl)-N-(pyrazin-2-yl)propanamide], the “Rabbit placenta inhibition % @100 nM” value in data set [1] is recorded as 46%. The half-life at 1 μM in data set [2] is 30 min.

`C[C@]12CCC3c4cccc(F)c4CCC3C1[C@H](CCC(=O)NC1CCCCC1)c1c[nH]nc12` (stereo partly drawn) [Compound 207, N-cyclohexyl-3-((8aS,12S)-3-fluoro-8a-methyl-1,2,6b,7,8,8a,10,12,12a,12b-decahydronaphtho[2′,1′:4,5]indeno[1,2-c]pyrazol-12-yl)propanamide]: the “Rabbit placenta inhibition % @100 nM” value in data set [1] is recorded as 14%. In addition, the half-life at 1 μM in data set [2] worked out at 18 min.

As to `C[C@]12CCC3c4cccc(F)c4CCC3C1[C@H](CCC(=O)N1CCCC1)c1c[nH]nc12` (stereo partly drawn) [Compound 210, 3-((8aS,12S)-3-fluoro-8a-methyl-1,2,6b,7,8,8a,10,12,12a,12b-decahydronaphtho[2′,1′:4,5]indeno[1,2-c]pyrazol-12-yl)-1-(pyrrolidin-1-yl)propan-1-one], in data set [1], the “Rabbit placenta inhibition % @100 nM” value amounted to 19%. Also, the half-life at 1 μM in data set [2] was determined as 11 min.

Take `CCN(CC)C(=O)CC[C@@H]1c2c[nH]nc2[C@@]2(C)CCC3c4cccc(F)c4CCC3C12` (stereo partly drawn) [Compound 216, N,N-diethyl-3-((8aS,12S)-3-fluoro-8a-methyl-1,2,6b,7,8,8a,10,12,12a,12b-decahydronaphtho[2′,1′:4,5]indeno[1,2-c]pyrazol-12-yl)propanamide]: in data set [1], the “Rabbit placenta inhibition % @100 nM” value stood at 10%. Also, in data set [2], the half-life at 1 μM is 8 min.

In the case of `C[C@]12CCC3c4cccc(F)c4CCC3C1[C@H](CCC(=O)N1CCC3(CCOCC3)C1)c1c[nH]nc12` (stereo partly drawn) [Compound 219, 3-((8aS,12S)-3-fluoro-8a-methyl-1,2,6b,7,8,8a,10,12,12a,12b-decahydronaphtho[2′,1′:4,5]indeno[1,2-c]pyrazol-12-yl)-1-(8-oxa-2-azaspiro[4.5]decan-2-yl)propan-1-one], the “Rabbit placenta inhibition % @100 nM” value in data set [1] is listed as 14%. Moreover, the half-life at 1 μM in data set [2] came out at 7 min.

`CN(C)C(=O)CC[C@@H]1c2c[nH]nc2[C@@]2(C)CCC3c4cccc(F)c4CCC3C12` (stereo partly drawn) [Compound 222, 3-((8aS,12S)-3-fluoro-8a-methyl-1,2,6b,7,8,8a,10,12,12a,12b-decahydronaphtho[2′,1′:4,5]indeno[1,2-c]pyrazol-12-yl)-N,N-dimethylpropanamide]: the “Rabbit placenta inhibition % @100 nM” value in data set [1] came out at 11%. In data set [2], the half-life at 1 μM came out at 12 min.

Regarding `C[C@]12CCC3c4cccc(F)c4CCC3C1[C@H](CCC(=O)Nc1ncccc1F)c1c[nH]nc12` (stereo partly drawn) [Compound 231, 3-((8aS,12S)-3-fluoro-8a-methyl-1,2,6b,7,8,8a,10,12,12a,12b-decahydronaphtho[2′,1′:4,5]indeno[1,2-c]pyrazol-12-yl)-N-(3-fluoropyridin-2-yl)propanamide], in data set [1], the “Rabbit placenta inhibition % @100 nM” value is reported as 35%. In addition, the half-life at 1 μM in data set [2] was determined as 29 min.

Source of the values: patent publication US20220041647A1, “ESTRA-1,3,5(10)-TRIENE COMPOUNDS CONDENSED IN POSITION 16(17) WITH A PYRAZOLE RING AS INHIBITORS OF 17-HSD1” (FORENDO PHARMA LTD, priority 2018, published 2022).
